One data set deals with P. aeruginosa PAO1. The experiment in a line: inhibition of bacterial growth, OD600 after 20 h. It counts as cell-based, Pseudomonas aeruginosa. The following applies: SSA 5.0 mM, 2.5% ethanol, negative = enhanced growth. On the procedure: (§1) With the self-associative properties of 1–10 established, the antimicrobial activity of these SSAs were determined against a panel of clinically relevant, high-priority pathogens including: P. aeruginosa PAO1; Klebsiella pneumonia (K. pneumoniae) M6; E. coli NCTC 12923; Acinetobacter baumannii (A. baumannii) ATCC 17978; S. aureus ATCC 9144; Enterococcus faecalis (E. faecalis) NCTC 775; and Enterococcus faecium (E. faecium) NCTC 12204. […] However, it should be noted that the SSA stock solution was prepared in a H2O 5% EtOH solution, to ensure that the SSA aggregates formed were in line with those characterised within the scope of the SSA self-association studies.
(§2) Section 3: Biological methods
(§3) These methods were taken directly from UK Health and Security Office (UKHSA) standard […]
(§4) Preparation of Luria Broth media (LB): Yeast extract (5.0 g), tryptone (10.0 g) and sodium chloride (10.0 g) were dissolved in dH₂O (1.0 L) then divided into bottles and autoclaved.
(§5) Preparation of Luria Broth (LB) agar plates: Agar (6.0 g) was added to LB (400 mL) and autoclaved. Once cool, the LB agar was poured into sterile petri dishes under sterile conditions and allowed to set. LB plates were stored at 4 °C until use.
(§6) Preparation of bacterial plates: Sterile LB agar plates were streaked using streaked using the desired bacteria i) Pseudomonas aeruginosa (P.aeruginosa) PAO1, ii) Klebsiella pneumoniae (K. pneumoniae) M6 iii) E. coli NCTC 12923 and iv) Acinetobacter baumannii (A. baumannii) ATCC 17978 and Gram-positive i) Staphylococcus aureus (S. aureus) ATCC 9144 ii) Enterococcus faecalis (E. faecalis) NCTC 775 and iii) Enterococcus faecium (E. faecium ) NCTC 12204, then incubated at 37 °C overnight.
(§7) Preparation of Inoculum: An initial culture was made up by inoculating LB media (5 mL) with a single colony of bacteria under sterile conditions and incubated at 37 °C with shaking overnight. The following day, overnight bacterial cultures were subcultured into fresh LB medium to a starting OD600 of 0.01.
(§8) Preparation of 96 well microplate for MIC50: The 1:100 cell suspension (150 µL) was dispensed into individual wells under sterile conditions. SSAs (30 µL) were added to the wells to equal a total volume of 180 µL in the wells. Six repeats of each concentration for each SSA were created each plate. The plates were sealed using parafilm, then incubated at 37 °C in a microplate reader for 20 hours. OD600 endpoint data was used to generate growth curves. […]

Another data set has as its system S. aureus ATCC 9144. The experiment in a line: inhibition of bacterial growth, OD600 after 20 h. Conditions: SSA 5.0 mM, 2.5% ethanol, negative = enhanced growth; for inhibition at 5000 µM: Staphylococcus aureus, ATCC9144, 20 h, read-out: Percentage inhibition of bacterial growth, ATCC 9144 (S. aureus). It counts as cell-based, Staphylococcus aureus. As for the experimental part: as §1, §2, §3, §4, §5, §6, §7, §8

The nature of data set [1]: kinetic solubility determination in PBS pH 7.4. The following applies: upper limit set at 300 µM; for solubility: PBS, pH 7.4, aqueous buffer, kinetic from dmso stock, Solubility in PBS pH 7.4, kinetic.
Data set [2] in a line: metabolic stability in liver microsomes. It counts as in vitro ADME, rat. Conditions: for microsomal CLint at 1 µM: read-out: in vitro CLint; for half-life at 1 µM: read-out: in vitro t1/2; for CLint scaled at 1 µM: liver microsomes, read-out: Scale-up CLint. As for the experimental part:
Metabolic stability was assessed in mouse and rat liver microsomes. Microsomes are subcellular fractions of hepatocytes and contain CYP450s, the predominant enzymes involved in first-pass metabolism.[66] […] A plasma protein binding assay was performed to assess the extent of compound binding to plasma proteins. This is key as only unbound compound is free to distribute and exert a pharmacological effect. […] To assess the potential for this sub-class of SSAs to be developed as drugs for oral administration, Caco-2 permeability assays were also performed, as a cellular model indicative of human intestinal permeability.
Section 3: Biological methods […]
In vitro Absorption, Distribution and Metabolism
These studies were performed by Contract Research Organisation (CRO) Pharmaron. The methodology provided within the ESI is published within the express permission of this organisation. The percentage of a compound recovered during the analysis process should be 100 %; any deviation from this value indicates experimental limitations such as unintended potential non-specific binding events to experimental equipment, solubility issues, etc.
Metabolic Stability in Rat and Mouse Liver Microsomes:
The metabolic stability of compounds at a concentration of 1 µM, in rat and mouse liver […]
/ mL) in the presence and absence of cofactor (NADPH) at 37 °C. Aliquots of each incubation were removed at 0.5, 5, 15, 30 and 60 minutes. The reaction was stopped by the addition of 5 volumes of cold acetonitrile containing analytical internal standard (IS).
Samples were then centrifuged at 3 °C, 220 g for 40 minutes to remove cell debris. The supernatant was aliquoted and added to ultra-pure H2O in a 1:1 ratio in preparation for LC- […]
Samples were analysed using a Shimadzu liquid chromatography system coupled to a Triple Quad 6500+ mass spectrometry (AB Inc.) Separation of compounds was achieved using an HSS T3 column (50 x 2.1 mm) at a temperature of 40 °C and a binary mobile phase gradient […]
at a flow rate of 0.7 mL/min. […]
acid in water) and 5 % solvent B (0.1 % formic acid in acetonitrile). […]
solvent B at 0.7 minutes, held for 0.5 minutes and then immedi ately returned to initial conditions. Sample analysis was by electrospray ionisation. […]
(Microsomes from liver hold many membrane-bound enzymes, among them those of drug oxidation.)

[3] abbreviates: rat liver microsomes, 1 µM, 0.5 mg protein/mL.

Converted amounts (≈) assume the structure as drawn. “And” between values parts separate entries of the source, which are not always exact repeats. Equal values may be shown once.

`O=C(O)CC[C@H](NC(=O)Nc1ccc(C(F)(F)F)cc1)C(=O)O` [SSA 1]: the “Percentage inhibition of bacterial growth, PAO1 (P. aeruginosa)” value (“Percentage inhibition … (P. aeruginosa)” for short) with P. aeruginosa PAO1 is -28.56% and −29%. For the same compound, the “Percentage inhibition of bacterial growth, ATCC 9144 (S. aureus)” value (“Percentage inhibition … (S. aureus)” below) in the data set with S. aureus ATCC 9144 turned out to be 99%. Besides, the inhibition at 5000 µM with S. aureus ATCC 9144 amounted to 98.7%. Further, the concentration in solution in data set [1] (solubility) was 303 µM (≈ 101 µg/mL). The “Hepatic Extraction Ratio (ER)” value in data set [2] (rat) was < 0.21. Also, the “Predicted Hepatic CLH” value in data set [2] (rat) is on record as < 14.42 mL/min/kg. Further, in data set [2] (setting [3]), the microsomal CLint at 1 µM is < 7.5 µL/min/mg. Besides, the half-life at 1 µM in data set [2] (setting [3]) is > 3.08 h. Besides, the Remaining percentage in data set [2] (rat, +Cofactors, 0.5 min) is reported as 100.00%; in data set [2] (rat, +Cofactors, 5 min), 96.56%; in data set [2] (rat, +Cofactors, 15 min) it was 99.83%; in data set [2] (rat, +Cofactors, 30 min) it was 96.48%; in data set [2] (rat, +Cofactors, 60 min), 95.66%; in data set [2] (rat, -Cofactors, 0.5 min), 100.00%. The Remaining percentage in data set [2] (rat, -Cofactors, 60 min) worked out at 102.14%. In addition, the CLint scaled at 1 µM in data set [2] (rat) is < 18.3 mL/min/kg.

In the case of `O=C(O)CC[C@H](NC(=O)Nc1ccc(C(F)(F)F)cc1)C(=O)O` [SSA 2], the “Percentage inhibition … (P. aeruginosa)” value with P. aeruginosa PAO1 is -11.25% and −11%. The “Percentage inhibition … (S. aureus)” value in the data set with S. aureus ATCC 9144 is 79.71% and 80%. In data set [1] (kinetic), the “Solubility in PBS pH 7.4” value amounted to 297.29 μM. Further, in data set [2] (rat), the “Hepatic Extraction Ratio (ER)” value was < 0.21. Besides, the “Predicted Hepatic CLH” value in data set [2] (rat) is reported as < 14.42 mL/min/kg. For the same compound, in data set [2] (rat), the “Scale-up CLint” value is < 18.30 mL/min/kg. Besides, the “in vitro CLint” value in data set [2] (setting [3]) is < 7.50 µL/min/mg. Also, the “in vitro t1/2” value in data set [2] (setting [3]) was > 3.0797 h. Moreover, the Remaining percentage in data set [2] (rat, +Cofactors, 0.5 min) was determined as 100.00%; in data set [2] (rat, +Cofactors, 5 min), 95.53%; in data set [2] (rat, +Cofactors, 15 min) it was 94.28%; in data set [2] (rat, +Cofactors, 30 min), 97.57%; in data set [2] (rat, +Cofactors, 60 min), 96.64%; in data set [2] (rat, -Cofactors, 0.5 min), 100.00%. In addition, the Remaining percentage in data set [2] (rat, -Cofactors, 60 min) is 97.74%.

For the compound `O=C(O)CC[C@@H](NC(=O)Nc1ccc(C(F)(F)F)cc1)C(=O)O` [SSA 3], the “Percentage inhibition … (P. aeruginosa)” value in the data set on P. aeruginosa PAO1 (listed as 3) was -35.71% and −36%. In addition, in the data set with S. aureus ATCC 9144 (listed as 3), the “Percentage inhibition … (S. aureus)” value is reported as 99%. In addition, in the data set with S. aureus ATCC 9144, the inhibition at 5000 µM was found to be 99.1%. In data set [1], this compound gave a solubility of 310 µM (≈ 104 µg/mL). Moreover, in data set [2] (rat), the “Hepatic Extraction Ratio (ER)” value is given as < 0.21. Moreover, the “Predicted Hepatic CLH” value in data set [2] (rat) is recorded as < 14.42 mL/min/kg. Also, in data set [2] (setting [3]), the microsomal CLint at 1 µM is < 7.5 µL/min/mg. In addition, the half-life at 1 µM in data set [2] (setting [3]) was > 3.08 h. Further, the Remaining percentage came out at 100.00% in data set [2] (rat, +Cofactors, 0.5 min); 95.07% in data set [2] (rat, +Cofactors, 5 min); 99.07% in data set [2] (rat, +Cofactors, 15 min); 97.86% in data set [2] (rat, +Cofactors, 30 min); 98.31% in data set [2] (rat, +Cofactors, 60 min); 100.00% in data set [2] (rat, -Cofactors, 0.5 min). Besides, in data set [2] (rat, -Cofactors, 60 min), the Remaining percentage is 104.13%. Besides, the CLint scaled at 1 µM in data set [2] (rat) is < 18.3 mL/min/kg.

Regarding `O=C(O)CC[C@H](NC(=O)Nc1ccc(Br)cc1)C(=O)O` [SSA 9], in the data set on S. aureus ATCC 9144 (listed as 9), the “Percentage inhibition … (S. aureus)” value was 60.74% and 61%. This compound also gave a solubility in data set [1] of 305 µM (≈ 105 µg/mL). In addition, in data set [2] (rat), the “Hepatic Extraction Ratio (ER)” value was < 0.21. The “Predicted Hepatic CLH” value in data set [2] (rat) is on record as < 14.42 mL/min/kg. Moreover, the microsomal CLint at 1 µM in data set [2] (setting [3]) was < 7.5 µL/min/mg. In data set [2] (setting [3]), the half-life at 1 µM was > 3.08 h. In addition, the Remaining percentage in data set [2] (rat, +Cofactors, 0.5 min) worked out at 100.00%; in data set [2] (rat, +Cofactors, 5 min), 97.95%; in data set [2] (rat, +Cofactors, 15 min), 96.49%; in data set [2] (rat, +Cofactors, 30 min), 99.04%; in data set [2] (rat, +Cofactors, 60 min), 100.06%; in data set [2] (rat, -Cofactors, 0.5 min) it was 100.00%. In addition, in data set [2] (rat, -Cofactors, 60 min), the Remaining percentage was found to be 102.63%. For the same compound, the CLint scaled at 1 µM in data set [2] (rat) is < 18.3 mL/min/kg.

In general, inhibition refers to the relative decrease from the control value, in per cent. The term solubility denotes the dissolved amount per volume that the medium holds.

(Values after PMC12645191, “Dicarboxylate and dicarboxylic acid appended supramolecular self-associating amphiphiles as antimicrobial agents against high priority bacterial pathogens” (Organic & Biomolecular Chemistry, 2025).)
